This is an account of results in patent US20080096848A1, “Substituted N-Aryl-9-Oxo-9H-Fluorene-1-Carboxamides and Analogs as Activators of Caspases and Inducers of Apoptosis” (CYTOVIA INC., priority 2004, published 2008).

SMILES strings stand for the structures. Like-named read-outs stand apart in the source and are kept apart here.

The subject of one series is MX1. The experiment in a line: Inhibition of cell proliferation (GI50), CellTiter 96 AQueous One, MX1 cells. The following applies: Homo sapiens, 48 h incubation, read-out: GI50 (dose for 50% inhibition of cell proliferation). The format is cell-based. How it is done:
(§1) T-47D and MX1 cells were grown and harvested as in Example 39. An aliquot of 90 μL of cells (2.2×10^4 cells/mL) was added to a well of a 96-well microtiter plate containing 10 μl of a 10% DMSO in RPMI-1640 media solution containing 1 nM to 100 μM of N-(2-methylphenyl)-9-oxo-9H-fluorene-1-carboxamide (0.1 nM to 10 μM final) or other test compound. An aliquot of 90 μL of cells was added to a well of a 96-well microtiter plate containing 10 μL of a 10% DMSO in RPMI-1640 media solution without compound as the control sample for maximal cell proliferation (AMax). The samples were mixed by agitation and then incubated at 37° C. for 48 h in a 5% CO2-95% humidity incubator. After incubation, the samples were removed from the incubator and 20 μL of CellTiter 96 AQUEOUS One Solution Cell Proliferation™ reagent (Promega) was added. The samples were mixed by agitation and incubated at 37° C. for 2-4 h in a 5% CO2-95% humidity incubator. Using an absorbance plate reader (Model 1420 Wallac Instruments), an initial reading (T=0) was made about 1-2 min after addition of the solution, employing absorbance at 490 nm. This determines the possible background absorbance of the test compounds. No absorbance for N-(2-methylphenyl)-9-oxo-9H-fluorene-1-carboxamide was found at 490 nm. After the 2-4 h incubation, the samples were read for absorbance as above (ATest).
(§2) Baseline for GI50 (dose for 50% inhibition of cell proliferation) of initial cell numbers were determined by adding an aliquot of 90 μL of cells or 90 μL of media, respectively, to wells of a 96-well microtiter plate containing 10 μL of a 10% DMSO in RPMI-1640 media solution. The samples were mixed by agitation and then incubated at 37° C. for 0.5 h in a 5% CO2-95% humidity incubator. After incubation, the samples were removed from the incubator and 20 μL of CellTiter 96 AQUEOUS One Solution Cell Proliferation™ reagent (Promega) was added. The samples were mixed by agitation and incubated at 37° C. for 2-4 h in a 5% CO2-95% humidity incubator. Absorbance was read as above, (AStart) defining absorbance for initial cell number used as baseline in GI50 determinations.
(§3) GI50 (dose for 50% inhibition of cell proliferation) is the concentration where [(ATest−Astart)/(AMax−Astart)]=0.5.

Series [1] deals with T-47D. Kind of series: Inhibition of cell proliferation (GI50), CellTiter 96 AQueous One, T-47D cells. The format is cell-based. Particulars: Homo sapiens, T47D, 48 h incubation, read-out: GI50 (dose for 50% inhibition of cell proliferation). How it is done:
as §1, §2, §3

Series [2] has as its system T-47D. The experiment in a line: Caspase cascade activation assay (Ac-DEVD-R110 fluorogenic substrate) in T-47D cells. The format is cell-based, Human. The following applies: 24 h incubation; for Caspase activity (Ratio): ratio of net RFU (T=3 h) of test compound to control, 0.16 to 10 μM final; for EC50: sigmoidal dose-response, read-out: Caspase potency EC50. The procedure: Human breast cancer cell lines T-47D was grown according to media component mixtures designated by American Type Culture Collection+10% FCS (Invitrogen Corporation), in a 5% CO2-95% humidity incubator at 37° C. T-47D and ZR-75-1 cells were maintained at a cell density between 30 and 80% confluency and for HL-60 at a cell density of 0.1 to 0.6×10^6 cells/mL. Cells were harvested at 600×g and resuspended at 0.65×10^6 cells/mL into appropriate media+10% FCS. An aliquot of 45 μL of cells was added to a well of a 96-well microtiter plate containing 5 μL of a 10% DMSO in RPMI-1640 media solution containing 1.6 to 100 μM of N-(2-methylphenyl)-9-oxo-9H-fluorene-1-carboxamide or other test compound (0.16 to 10 μM final). An aliquot of 45 μL of cells was added to a well of a 96-well microtiter plate containing 5 μL of a 10% DMSO in RPMI-1640 media solution without test compound as the control sample. The samples were mixed by agitation and then incubated at 37° C. for 24 h in a 5% CO2-95% humidity incubator. After incubation, the samples were removed from the incubator and 50 μL of a solution containing 20 μM of N—(Ac-DEVD)-N′-ethoxycarbonyl-R110 fluorogenic substrate (SEQ ID NO:1) (Cytovia, Inc.; U.S. Pat. No. 6,335,429), 20% sucrose (Sigma), 20 mM DTT (Sigma), 200 mM NaCl (Sigma), 40 mM Na PIPES buffer pH 7.2 (Sigma), and 500 μg/mL lysolecithin (Calbiochem) was added. The samples were mixed by agitation and incubated at room temperature. Using a fluorescent plate reader (Model 1420 Wallac Instruments), an initial reading (T=0) was made about 1-2 min after addition of the substrate solution, employing excitation at 485 nm and emission at 530 nm, to determine the background fluorescence of the control sample. After about 3 h of incubation, the samples were read for fluorescence as above (T=3 h).
The Relative Fluorescence Unit values (RFU) were used to calculate the sample readings as follows: RFU(T=3h)−Control RFU(T=0)=Net RFU(T=3h)
The activity of caspase cascade activation was determined by the ratio of the net RFU value for N-(2-methylphenyl)-9-oxo-9H-fluorene-1-carboxamide and other test compounds to that of control samples. The EC50 (nM) was determined by a sigmoidal dose-response calculation (Prism 2.0, GraphPad Software Inc.).

What is called EC50 is the concentration needed to bring the measured effect to its halfway point. Take `O=C(Nc1ccccc1-n1cccn1)c1cccc2c1C(=O)c1ccccc1-2` [Example 9, N-(2-(1H-Pyrazol-1-yl)-phenyl)-9-oxo-9H-fluorene-1-carboxamide]: the GI50 with MX1 is 1000 nM; in the series on T-47D [1], 451 nM. Further, the “Caspase activity (Ratio)” value in the series on T-47D [2] is 7.7. In the series on T-47D [2] (Homo sapiens, T47D, 24 h), the EC50 came out at 979 nM.
The melting point is the temperature of the solid-liquid transition. `CN(C)c1ccccc1NC(=O)c1cccc2c1C(=O)c1ccccc1-2` [Example 10, N-(2-Dimethylaminophenyl)-9-oxo-9H-fluorene-1-carboxamide]: the melting point lay within 152 to 153 °C. The GI50 with MX1 was 736 nM. The GI50 in the series on T-47D [1] turned out to be 665 nM. Also, the “Caspase activity (Ratio)” value with T-47D [2] came out at 8.0. Besides, in the series on T-47D [2] (Homo sapiens, T47D, 24 h), the EC50 came to 1540 nM.
In the case of `O=C(Nc1ccccc1-n1cccn1)c1cccc2c1Cc1ccccc1-2` [Example 12, N-(2-(1H-Pyrazol-1-yl)-phenyl)-9H-fluorene-1-carboxamide], the melting point fell in the range of 179 to 180 °C. For the same compound, the “Caspase activity (Ratio)” value in the series on T-47D [2] is listed as 8.9. The EC50 in the series on T-47D [2] (Homo sapiens, T47D, 24 h) stood at 1580 nM.
As to `Cc1ccccc1NC(=O)c1cccc2c1Cc1ccccc1-2` [Example 13, N-(2-Methylphenyl)-9H-fluorene-1-carboxamide], the values for the GI50 in the series with MX1 and with T-47D [1] were 6000 nM and 5040 nM, respectively. Also, the “Caspase activity (Ratio)” value in the series with T-47D [2] worked out at 6.0. Further, the EC50 with T-47D [2] (Homo sapiens, T47D, 24 h) came to 1100 nM.
In the case of `COc1ccccc1NC(=O)c1cccc2c1C(=O)c1ccccc1-2` [Example 15, N-(2-Methoxyphenyl)-9-oxo-9H-fluorene-1-carboxamide], the results for the GI50 in the series on MX1 and in the series with T-47D [1] were 2000 nM and 600 nM, respectively. Also, the “Caspase activity (Ratio)” value in the series with T-47D [2] worked out at 6.6. For the same compound, in the series with T-47D [2] (Homo sapiens, T47D, 24 h), the EC50 was found to be 577 nM.
As for `CN(C)Cc1ccccc1NC(=O)c1cccc2c1C(=O)c1ccccc1-2` [Example 20, N-(2-Dimethylaminomethylphenyl)-9-oxo-9H-fluorene-1-carboxamide], the figures for the GI50 in the series with MX1 and with T-47D [1] were 8000 nM and 233 nM, respectively. For the same compound, the “Caspase activity (Ratio)” value with T-47D [2] stood at 6.7. Further, the 50% effective concentration (EC50) in the series on T-47D [2] came to 697 nM.
For the compound `[N-]=[N+]=Nc1ccccc1NC(=O)c1cccc2c1C(=O)c1ccccc1-2` [Example 27, N-(2-Azido-phenyl)-9-oxo-9H-fluorene-1-carboxamide], the results for the GI50 with MX1 and in the series on T-47D [1] were 90 nM and 45 nM, respectively. For the same compound, the “Caspase activity (Ratio)” value in the series on T-47D [2] is reported as 4.0. Further, the half-maximal effective concentration (EC50) with T-47D [2] (Homo sapiens, T47D, 24 h) is 1400 nM.
In the same order, the values of `CN(C(=O)c1cccc2c1C(=O)c1ccccc1-2)c1ccccc1-n1cccn1` [Example 28, N-Methyl-N-(2-(1H-pyrazol-1-yl)phenyl)-9-oxo-9H-fluorene-1-carboxamide] are more than 10000 nM, more than 10000 nM, 1.2 and more than 10000 nM.
On to `O=C(Nc1ccccc1-n1cccn1)c1cccc2c1C(=O)c1cc([N+](=O)[O-])ccc1-2` [Example 29, 7-Nitro-N-(2-(1H-pyrazol-1-yl)phenyl)-9-oxo-9H-fluorene-1-carboxamide], for which the GI50 stood at 150 nM in the series on MX1 and 166 nM in the series on T-47D [1]. Also, in the series with T-47D [2], the “Caspase activity (Ratio)” value is given as 5.3. For the same compound, in the series with T-47D [2] (Homo sapiens, T47D, 24 h), the EC50 worked out at 231 nM.
As for `O=C(Nc1ccccc1-n1cccn1)c1cccc2sc3ccccc3c12` [Example 32, N-(2-(1H-Pyrazol-1-yl)phenyl)-dibenzothiophene-1-carboxamide], the GI50 in the series with MX1 turned out to be 4350 nM; in the series with T-47D [1] it was 2470 nM. The “Caspase activity (Ratio)” value in the series with T-47D [2] was found to be 2.7. In addition, the EC50 in the series on T-47D [2] (Homo sapiens, T47D, 24 h) stood at 1280 nM.
On to `[N-]=[N+]=Nc1ccc2c(c1)C(=O)c1c(C(=O)Nc3ccccc3-n3cccn3)cccc1-2` [Example 37, 7-Azido-N-(2-(1H-pyrazol-1-yl)phenyl)-9-oxo-9H-fluorene-1-carboxamide], for which the GI50 was determined as 200 nM in the series with MX1 and 415 nM in the series with T-47D [1]. Further, the “Caspase activity (Ratio)” value in the series on T-47D [2] is reported as 3.0. Besides, the EC50 in the series on T-47D [2] (Homo sapiens, T47D, 24 h) came to 681 nM.
Take `O=C(Nc1ccccc1-n1cc(Br)cn1)c1cccc2c1C(=O)c1cc([N+](=O)[O-])ccc1-2` [Example 38, N-(2-(4-Bromo-1H-pyrazol-1-yl)phenyl)-7-nitro-9-oxo-9H-fluorene-1-carboxamide]: the GI50 worked out at 315 nM with MX1 and 429 nM with T-47D [1]. Besides, the “Caspase activity (Ratio)” value in the series with T-47D [2] was 8.0. Besides, in the series on T-47D [2] (Homo sapiens, T47D, 24 h), the EC50 amounted to 302 nM.
The like results for `Cc1ccccc1NC(=O)c1cccc2c1C(=O)c1ccccc1-2` [Example A, N-(2-Methylphenyl)-9-oxo-9H-fluorene-1-carboxamide] were, in that order, 549 nM, 146 nM, 11.2 and 570 nM.
As to `CCOc1ccccc1NC(=O)c1cccc2c1C(=O)c1ccccc1-2` [N-(2-Ethoxyphenyl)-9-oxo-9H-fluorene-1-carboxamide], the “Caspase activity (Ratio)” value with T-47D [2] is listed as 8.2. Also, the EC50 in the series with T-47D [2] (Homo sapiens, T47D, 24 h) was determined as 2070 nM.
Take `O=C(Nc1ccccc1F)c1cccc2c1C(=O)c1ccccc1-2` [N-(2-Fluorophenyl)-9-oxo-9H-fluorene-1-carboxamide]: in the series with T-47D [2], the “Caspase activity (Ratio)” value stood at 5.7. The EC50 in the series on T-47D [2] (Homo sapiens, T47D, 24 h) amounted to 1960 nM.
Take `O=C(Nc1ccccc1-c1ccccc1)c1cccc2c1C(=O)c1ccccc1-2` [N-(2-Phenylphenyl)-9-oxo-9H-fluorene-1-carboxamide]: in the series with T-47D [2], the “Caspase activity (Ratio)” value was determined as 8.1. In the series with T-47D [2] (Homo sapiens, T47D, 24 h), the EC50 came to 1500 nM.
Consider `Cc1cccc(NC(=O)c2cccc3c2C(=O)c2ccccc2-3)c1` [N-(3-Methylphenyl)-9-oxo-9H-fluorene-1-carboxamide], for which the “Caspase activity (Ratio)” value in the series on T-47D [2] stood at 1.3. Also, the concentration for a half-maximal effect (EC50) with T-47D [2] (Homo sapiens, T47D, 24 h) was more than 10000 nM.
Take `COc1ccc(NC(=O)c2cccc3c2C(=O)c2ccccc2-3)cc1` [N-(4-Methoxyphenyl)-9-oxo-9H-fluorene-1-carboxamide]: the “Caspase activity (Ratio)” value with T-47D [2] was 1.8. The EC50 in the series on T-47D [2] (Homo sapiens, T47D, 24 h) is more than 10000 nM.
With `Cc1ccc(NC(=O)c2cccc3c2C(=O)c2ccccc2-3)cc1` [N-(4-Methylphenyl)-9-oxo-9H-fluorene-1-carboxamide], in the series on T-47D [2], the “Caspase activity (Ratio)” value is given as 1.4. In addition, the EC50 with T-47D [2] (Homo sapiens, T47D, 24 h) is more than 10000 nM.
